Measurements as given in the supplement of paper PMC13380429.

How the values were obtained:
[1] = tested on: A549-ACE2 infected with SARS-CoV-2; test: morphology score (similarity to uninfected cells); higher = more like uninfected cells; conditions: 24 h
A549-ACE2 [2] = test: drug-induced phospholipidosis relative to tamoxifen; higher = more phospholipidosis
Vero E6 [3] = test: relative viability EC50 (midpoint between 100% and the lowest measured viability); higher = less toxic; conditions: 72 h
U2OS [4] = test: as above; conditions: 72 h
HepG2 [5] = test: as above; conditions: 72 h
Calu-3 [6] = test: as above; conditions: 72 h
Caco-2 [7] = test: as above; conditions: 72 h
[8] = tested on: A549-ACE2 infected with SARS-CoV-2; test: cell count relative to DMSO; higher = less toxic; conditions: 24 h
[9] = tested on: A549-ACE2 infected with SARS-CoV-2; test: SARS-CoV-2 infection rate relative to DMSO; higher = more infection; conditions: 24 h
Vero E6 [10] = test: drug sensitivity score (DSS) for viability; higher = more toxic; extreme values may be limits of the assay; conditions: 72 h
U2OS [11] = test: as above; conditions: 72 h
HepG2 [12] = test: as above; conditions: 72 h
Calu-3 [13] = test: as above; conditions: 72 h
Caco-2 [14] = test: as above; conditions: 72 h
Vero E6 [15] = test: cell viability relative to DMSO; higher = less toxic; conditions: 72 h
U2OS [16] = test: as above; conditions: 72 h
HepG2 [17] = test: as above; conditions: 72 h
Calu-3 [18] = test: as above; conditions: 72 h
Caco-2 [19] = test: as above; conditions: 72 h
A549-ACE2 [20] = test: phospholipidosis EC50; higher = less potent phospholipidosis inducer

CNc1cc(OC)c(C(=O)NC2CCN(Cc3ccccc3)C2C)cc1Cl (stereo not drawn) [nemonapride]
Conditions	SARS-CoV-2 infection rate, [9] [%]	cell count, [8] [%]	cell viability, Caco-2 [19] [%]	cell viability, Calu-3 [18] [%]	cell viability, HepG2 [17] [%]	cell viability, U2OS [16] [%]	cell viability, Vero E6 [15] [%]	morphology score, [1]
1 nM	–	–	101	92.2	96	90.7	99.1	–
10 nM	–	–	104	98	96.1	99.4	91.9	–
100 nM	–	–	104	92.6	98.1	94.5	99.5	–
0.3 µM	100	99	–	–	–	–	–	-0.15
1000 nM	–	–	108	105	94.2	98.6	94.7	–
3 µM	61	111	–	–	–	–	–	0.69
10 µM	49	123	–	–	–	–	–	0.82
10000 nM	–	–	90.5	87.5	83.4	93.8	100	–
30 µM	16	122	–	–	–	–	–	0.86

drug-induced phospholipidosis [%], A549-ACE2 [2]
Conditions	0.3 µM	0.833333 µM	3.33333 µM	6.66667 µM	10 µM	30 µM
24 h	1.28	6.8	10.9	12.3	18.5	51
48 h	3.09	4.55	12.9	15.7	16.3	43.9
72 h	5.92	4.8	14.4	19.3	24.2	53.2

Conditions	drug sensitivity score	relative viability EC50 [µM]
Caco-2 [7]	–	> 10
Caco-2 [14]	0	–
Calu-3 [6]	–	> 10
Calu-3 [13]	0	–
HepG2 [5]	–	> 10
HepG2 [12]	0.6	–
U2OS [4]	–	> 10
U2OS [11]	0	–
Vero E6 [3]	–	> 10
Vero E6 [10]	0	–

CCSc1ccc2c(c1)N(CCCN1CCN(C)CC1)c1ccccc1S2 [thiethylperazine]
Conditions	SARS-CoV-2 infection rate [%]	cell count [%]	cell viability [%]	morphology score	phospholipidosis EC50 [µM]
A549-ACE2 [20], 24 h	–	–	–	–	3.52
A549-ACE2 [20], 48 h	–	–	–	–	5.17
A549-ACE2 [20], 72 h	–	–	–	–	6.75
Caco-2 [19], 1 nM	–	–	101	–	–
Caco-2 [19], 10 nM	–	–	95.4	–	–
Caco-2 [19], 100 nM	–	–	91.7	–	–
Caco-2 [19], 1000 nM	–	–	98.4	–	–
Caco-2 [19], 10000 nM	–	–	69.6	–	–
Calu-3 [18], 1 nM	–	–	101	–	–
Calu-3 [18], 10 nM	–	–	89.2	–	–
Calu-3 [18], 100 nM	–	–	95.9	–	–
Calu-3 [18], 1000 nM	–	–	110	–	–
Calu-3 [18], 10000 nM	–	–	59.9	–	–
HepG2 [17], 1 nM	–	–	98	–	–
HepG2 [17], 10 nM	–	–	100	–	–
HepG2 [17], 100 nM	–	–	101	–	–
HepG2 [17], 1000 nM	–	–	89.5	–	–
HepG2 [17], 10000 nM	–	–	55.6	–	–
U2OS [16], 1 nM	–	–	103	–	–
U2OS [16], 10 nM	–	–	102	–	–
U2OS [16], 100 nM	–	–	106	–	–
U2OS [16], 1000 nM	–	–	106	–	–
U2OS [16], 10000 nM	–	–	91.6	–	–
Vero E6 [15], 1 nM	–	–	97.7	–	–
Vero E6 [15], 10 nM	–	–	95.5	–	–
Vero E6 [15], 100 nM	–	–	95	–	–
Vero E6 [15], 1000 nM	–	–	102	–	–
Vero E6 [15], 10000 nM	–	–	83.2	–	–
[1], 0.3 µM	–	–	–	0.15	–
[1], 3 µM	–	–	–	0.81	–
[1], 10 µM	–	–	–	0.8	–
[1], 30 µM	–	–	–	-0.01	–
[8], 0.3 µM	–	98	–	–	–
[8], 3 µM	–	116	–	–	–
[8], 10 µM	–	122	–	–	–
[8], 30 µM	–	17	–	–	–
[9], 0.3 µM	99	–	–	–	–
[9], 3 µM	40	–	–	–	–
[9], 10 µM	12	–	–	–	–
[9], 30 µM	61	–	–	–	–

drug-induced phospholipidosis [%], A549-ACE2 [2]
Conditions	0.3 µM	0.833333 µM	3.33333 µM	6.66667 µM	10 µM	30 µM
24 h	2.75	4.77	26.3	67.4	80	53.2
48 h	3.55	4.25	19.4	77.1	97	–
72 h	4.26	5.76	19.6	70	104	–

Conditions	drug sensitivity score	relative viability EC50 [µM]
Caco-2 [14]	1.6	–
Calu-3 [13]	1.5	–
HepG2 [12]	3.9	–
U2OS [4]	–	> 10
U2OS [11]	0	–
Vero E6 [3]	–	> 10
Vero E6 [10]	0.3	–

NCCCS(=O)(=O)O [tramiprosate]
Conditions	drug sensitivity score	relative viability EC50 [µM]
Caco-2 [7]	–	> 10
Caco-2 [14]	0	–
Calu-3 [6]	–	> 10
Calu-3 [13]	0	–
HepG2 [5]	–	> 10
HepG2 [12]	0	–
U2OS [4]	–	> 10
U2OS [11]	0	–
Vero E6 [3]	–	> 10
Vero E6 [10]	0	–

cell viability [%]
Conditions	Caco-2 [19]	Calu-3 [18]	HepG2 [17]	U2OS [16]	Vero E6 [15]
1 nM	86.1	98.5	108	94.6	95.2
10 nM	94.8	95.1	97.4	99.2	95.8
100 nM	97.7	95	106	101	100
1000 nM	98.1	96.8	108	103	99.7
10000 nM	93	98.7	109	94.7	106
